Data published in the supplement of paper PMC10307832.

What was measured:
Assay in all cases: relative viability (nuclei count vs DMSO), 5 days (fraction); higher = more cells survive
CX-5461 + Luminespib = compound: Cc1cnc(CNC(=O)c2c(=O)c3ccc(N4CCCN(C)CC4)nc3n3c2sc2ccccc23)cn1 [CX-5461] + CCNC(=O)c1noc(-c2cc(C(C)C)c(O)cc2O)c1-c1ccc(CN2CCOCC2)cc1 [Luminespib] (partner 0.01 µM)
Procedure, shortened: (§1)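 Relative viability divides the nuclei count in treated wells by that in vehicle wells. Lung cancer cell lines were seeded in 1536-well plates, dosed by pin tool the next day, and fixed and stained after 5 days in one step with final 0.05% Triton X-100, 1% formaldehyde and 1 ug/ml Hoechst. Dosing was a single drug or a fixed anchor-drug dose plus five library-drug doses (not always all listed) in √10 steps, and values are medians of duplicate plates imaged at 4×.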

CX-5461 + Pictilisib = compound: Cc1cnc(CNC(=O)c2c(=O)c3ccc(N4CCCN(C)CC4)nc3n3c2sc2ccccc23)cn1 [CX-5461] + CS(=O)(=O)N1CCN(Cc2cc3nc(-c4cccc5[nH]ncc45)nc(N4CCOCC4)c3s2)CC1 [Pictilisib] (partner 1 µM)
Procedure, shortened: as §1

IMD-0354 + OSI-027 = compound: O=C(Nc1cc(C(F)(F)F)cc(C(F)(F)F)c1)c1cc(Cl)ccc1O [IMD-0354] + COc1cccc2cc(-c3nc([C@H]4CC[C@H](C(=O)O)CC4)n4ncnc(N)c34)[nH]c12 [OSI-027] (partner 0.5 µM)
Procedure, shortened: as §1

IMD-0354 + AZD7762 = compound: O=C(Nc1cc(C(F)(F)F)cc(C(F)(F)F)c1)c1cc(Cl)ccc1O [IMD-0354] + NC(=O)Nc1cc(-c2cccc(F)c2)sc1C(=O)N[C@H]1CCCNC1 [AZD7762] (partner 0.2 µM)
Procedure, shortened: as §1

Row | Cell Line | relative viability (CX-5461 + Luminespib; first compound 0.01 µM) | relative viability (CX-5461 + Luminespib; first compound 0.03162 µM) | relative viability (CX-5461 + Luminespib; first compound 0.1 µM) | relative viability (CX-5461 + Luminespib; first compound 0.3162 µM) | relative viability (CX-5461 + Luminespib; first compound 1 µM) | relative viability (CX-5461 + Pictilisib; first compound 0.01 µM) | relative viability (CX-5461 + Pictilisib; first compound 0.03162 µM) | relative viability (CX-5461 + Pictilisib; first compound 0.1 µM) | relative viability (CX-5461 + Pictilisib; first compound 0.3162 µM) | relative viability (CX-5461 + Pictilisib; first compound 1 µM) | relative viability (IMD-0354 + OSI-027; first compound 0.04 µM) | relative viability (IMD-0354 + OSI-027; first compound 0.1265 µM) | relative viability (IMD-0354 + OSI-027; first compound 1.265 µM) | relative viability (IMD-0354 + OSI-027; first compound 4 µM) | relative viability (IMD-0354 + AZD7762; first compound 0.04 µM) | relative viability (IMD-0354 + AZD7762; first compound 0.1265 µM) | relative viability (IMD-0354 + AZD7762; first compound 0.4 µM) | relative viability (IMD-0354 + AZD7762; first compound 1.265 µM) | relative viability (IMD-0354 + AZD7762; first compound 4 µM) | relative viability (IMD-0354 + OSI-027; first compound 0.4 µM)
1 | 201T | 1.05 | 1.04 | 1.05 | 1.06 | 1.11 | 0.713 | 0.748 | 0.753 | 0.708 | 0.721 | 0.596 | 0.882 | 0.553 | 0.175 | 0.511 | 0.616 | 0.392 | 0.657 | 0.214 | –
2 | A549 | – | – | – | – | – | 0.555 | 0.525 | – | 0.472 | 0.0627 | – | – | – | – | – | – | – | – | – | –
3 | A-427 | 0.965 | 0.899 | 0.953 | – | 0.721 | 0.78 | 0.868 | 0.732 | – | 0.584 | 0.66 | 0.459 | 0.127 | 0.135 | 1.01 | 0.827 | 0.585 | 0.14 | 0.202 | 0.288
4 | ABC-1 | 0.531 | 0.691 | 0.521 | 0.402 | 0.303 | 0.792 | 1 | – | 0.289 | 0.573 | 0.517 | 0.331 | 0.207 | 0.23 | 1.26 | 0.98 | 0.522 | 0.257 | 0.331 | 0.369
5 | BEN | 0.326 | 0.391 | 0.289 | 0.337 | 0.181 | 0.662 | 0.573 | 0.6 | 0.543 | 0.534 | 0.306 | 0.301 | 0.311 | 0.195 | 0.715 | 0.793 | 0.487 | 0.334 | 0.347 | 0.264
6 | CAL-12T | 0.302 | 0.534 | 0.31 | 1.51 | 0.24 | 0.384 | 0.386 | 0.331 | 0.33 | 0.449 | 0.807 | 0.463 | 0.193 | 0.17 | 0.655 | 0.744 | 0.357 | 0.261 | 0.32 | 0.385
7 | COR-L23 | 0.641 | 0.597 | 0.512 | 0.547 | 0.333 | 0.811 | 1.15 | 0.656 | 0.65 | 0.443 | 0.767 | 0.679 | 0.145 | 0.178 | – | – | – | – | – | 0.397
8 | COR-L 105 | 0.839 | 0.703 | 0.907 | 0.667 | 0.699 | 0.425 | 0.461 | 0.352 | 0.281 | 0.333 | 0.812 | 0.697 | 0.363 | 0.23 | – | – | – | – | – | 0.533
9 | Calu-6 | – | – | – | – | – | 1 | 1.04 | 0.817 | 0.845 | 0.409 | – | – | – | – | – | – | – | – | – | –
10 | ChaGo-K-1 | 0.595 | 0.626 | 0.548 | 0.668 | 0.462 | 0.938 | 0.658 | 0.564 | 0.35 | 0.395 | 0.725 | 0.514 | 0.269 | 0.232 | 0.912 | 0.937 | 0.596 | 0.218 | 0.254 | 0.384
11 | EBC-1 | – | – | – | – | – | 0.375 | 0.344 | 0.331 | 0.362 | 0.224 | – | – | – | – | – | – | – | – | – | –
12 | EKVX | 0.868 | 0.91 | 0.728 | 0.843 | 0.689 | 0.47 | 0.447 | 0.429 | – | 0.389 | 0.771 | 0.685 | 0.631 | 0.19 | 0.741 | 0.625 | – | 0.328 | 0.21 | 0.629
13 | EMC-BAC-2 | 1.14 | 1.27 | 1.15 | 1.11 | 0.756 | 0.555 | 0.565 | 0.562 | 0.414 | 0.353 | 0.403 | 0.386 | 0.336 | 0.3 | 1.19 | 1.13 | 0.822 | 0.443 | 0.433 | 0.33
14 | EPLC-272H | 0.324 | 0.192 | 0.196 | – | 0.356 | 0.306 | 0.353 | 0.339 | – | 0.335 | 0.288 | 0.281 | 0.167 | 0.0714 | 0.167 | 0.217 | 0.162 | 0.19 | 0.118 | 0.292
15 | H3255 | 0.896 | 0.859 | 0.932 | 0.811 | 0.941 | 0.489 | 0.554 | 0.469 | 0.347 | 0.422 | 0.549 | 0.59 | 0.488 | 0.302 | 0.812 | 1 | 0.573 | 0.385 | 0.274 | 0.585
16 | HARA | 0.711 | 1.15 | 1.09 | – | 0.392 | 0.634 | 0.559 | 0.37 | 0.497 | 0.267 | 0.576 | 0.542 | 0.148 | 0.0924 | 0.281 | 0.357 | 0.38 | 0.177 | 0.141 | 0.179
